Laboratory results published in US20210059959A1, “USE OF CANNABINOIDS IN THE TREATMENT OF MENTAL DISORDERS” (GW Pharma Limited, priority 2015, published 2021).

Test system: participants with schizophrenia or related psychotic disorder
Experiment: Scale for the Assessment of Negative Symptoms (SANS), double-blind placebo-controlled study of CBD as adjunctive therapy
Type: in vivo, human
Conditions: CBD vs placebo
Method: Example 1 below describes the use of a highly purified cannabis extract comprising cannabidiol (CBD) in a human clinical trial. Example 1 describes data produced in a double-blind, randomised, placebo-controlled, parallel group study of highly purified CBD as adjunctive therapy in first line treatment of schizophrenia or related psychotic disorder.
An eight-week, multi-centre, double-blind, randomised, placebo-controlled, parallel group study was conducted with the aim to determine the efficacy, safety and tolerability of highly purified CBD as adjunctive therapy in first line treatment of schizophrenia or related psychotic disorder.
This study evaluated the efficacy of highly purified CBD compared with placebo on the participant's PANSS Total score, ‘P’, ‘N’, ‘G’, SANS and BACS scores.
Changes from baseline in PANSS scores (Total, ‘P’, ‘N’ and ‘G’), SANS and BACS were recorded at the start of the study (baseline) and at the end of treatment (after 6 weeks treatment with CBD or placebo).
For inclusion in the study participants were required to be male or female aged 18 to 65 years, diagnosed with schizophrenia or a related psychotic disorder (such as schizoaffective or schizophreniform disorder) as defined by the Diagnostic and Statistical Manual of Mental Disorders Version 4. Participants must have been treated for a minimum of four-weeks and be on a stable dose of their current antipsychotic medication. […] A PANSS score in excess of 60 infers that the patient has symptoms related to schizophrenia or related disorders.
The participants were randomised to one of two treatment groups which each consisted of 39 participants. Treatment was administered as either 5 ml CBD (100 mg/ml) oral solution to be taken twice daily or 5 ml matched placebo oral solution to be taken twice daily.
Scale for the Assessment of Negative Symptoms (SANS)
SANS assesses five symptom complexes to obtain clinical ratings of negative symptoms in participants with schizophrenia or related psychotic disorder. They are: affective blunting; alogia (impoverished thinking); avolition/apathy; anhedonia/asociality; and disturbance of attention.
Assessments are conducted on a six-point scale (0=not at all to 5=severe). This scale was measured at each assessment visit (Visit 1-4)

[1] = patients on amisulpride, P = 0.8772

SMILES: C=C(C)[C@@H]1CCC(C)=C[C@H]1c1c(O)cc(CCCCC)cc1O [CBD, Cannabidiol]
- Change in baseline scores, SANS question 19: Sexual interest and activity: difference (all patients, P = 0.0364): (−0.4)
- Change in baseline scores, SANS sub-scale 4 (anhedonia/asociality): difference (all patients, P = 0.0605): (−1.2)
- Change in baseline scores, SANS question 24: Inattentiveness during mental status testing: difference (all patients, P = 0.0610): (−0.3)
- Change in baseline scores, SANS sub-scale 5 (disturbance of attention): difference (all patients, P = 0.0660): (−0.7)
- Change in baseline scores, SANS question 25: Global rating of attention: difference (all patients, P = 0.0773): (−0.2)
- Change in baseline scores, SANS question 20: Ability to feel closeness and intimacy: difference (all patients, P = 0.0918): (−1.1)
- Change in baseline scores, SANS total score: difference (all patients, P = 0.1168): (−3.5)
- Change in baseline scores, SANS question 18: Recreational interests and activity: difference (all patients, P = 0.1535): (−0.3)
- Change in baseline scores, SANS question 22: Global rating of anhedonia: difference (all patients, P = 0.1787): (−0.2)
- Change in baseline scores, SANS question 23: Social inattentiveness: difference (all patients, P = 0.2445): (−0.2)
- Change in baseline scores, SANS question 21: Relationships with friends and peers: difference (all patients, P = 0.8984): (0.0)
- Change in baseline scores, SANS score: difference (patients on amisulpride, P = 0.0687): (16.6)
- Change in baseline scores, SANS question 25: Global rating of attention: difference (patients on amisulpride, P = 0.0756): (1.0)
- Change in baseline scores, SANS question 19: Sexual interest and activity: difference (patients on amisulpride, P = 0.1971): (−0.8)
- Change in baseline scores, SANS question 18: Recreational interests and activity: difference (patients on amisulpride, P = 0.3833): (1.0)
- Change in baseline scores, SANS sub-scale 5 (disturbance of attention): difference (patients on amisulpride, P = 0.4023): (1.3)
- Change in baseline scores, SANS question 23: Social inattentiveness: difference (patients on amisulpride, P = 0.4206): (0.5)
- Change in baseline scores, SANS sub-scale 4 (anhedonia/asociality): difference (patients on amisulpride, P = 0.4357): (1.4)
- Change in baseline scores, SANS question 21: Relationships with friends and peers: difference (patients on amisulpride, P = 0.5671): (0.5)
- Change in baseline scores, SANS question 24: Inattentiveness during mental status testing: difference (patients on amisulpride, P = 0.8060): (−0.2)
- Change in baseline scores, SANS question 15: Impersistence at work or school: difference (patients on amisulpride, P = 0.8729): (0.0)
- Change in baseline scores, SANS question 20: Ability to feel closeness and intimacy: difference [1]: (0.1)
- Change in baseline scores, SANS question 22: Global rating of anhedonia: difference [1]: (0.1)
- Change in baseline scores, SANS question 25: Global rating of attention: difference (patients on aripiprazole, P = 0.0412): (−0.4)
- Change in baseline scores, SANS sub-scale 5 (disturbance of attention): difference (patients on aripiprazole, P = 0.1133): (−1.0)
- Change in baseline scores, SANS question 24: Inattentiveness during mental status testing: difference (patients on aripiprazole, P = 0.1740): (−0.4)
- Change in baseline scores, SANS question 15: Impersistence at work or school: difference (patients on aripiprazole, P = 0.1966): (−0.5)
- Change in baseline scores, SANS question 18: Recreational interests and activity: difference (patients on aripiprazole, P = 0.2979): (−0.3)
- Change in baseline scores, SANS question 23: Social inattentiveness: difference (patients on aripiprazole, P = 0.3546): (−0.2)
- Change in baseline scores, SANS question 19: Sexual interest and activity: difference (patients on aripiprazole, P = 0.4231): (−0.3)
- Change in baseline scores, SANS sub-scale 4 (anhedonia/asociality): difference (patients on aripiprazole, P = 0.7086): (−0.5)
- Change in baseline scores, SANS score: difference (patients on aripiprazole, P = 0.7642): (−1.4)
- Change in baseline scores, SANS question 21: Relationships with friends and peers: difference (patients on aripiprazole, P = 0.8346): (−0.1)
- Change in baseline scores, SANS question 20: Ability to feel closeness and intimacy: difference (patients on aripiprazole, P = 0.8965): (0.0)
- Change in baseline scores, SANS question 22: Global rating of anhedonia: difference (patients on aripiprazole, P = 0.9259): (0.0)
- Change in baseline scores, SANS score: difference (patients on olanzapine, P = 0.0050): (−14.3)
- Change in baseline scores, SANS question 20: Ability to feel closeness and intimacy: difference (patients on olanzapine, P = 0.0069): (−0.9)
- Change in baseline scores, SANS sub-scale 4 (anhedonia/asociality): difference (patients on olanzapine, P = 0.0071): (−3.7)
- Change in baseline scores, SANS question 15: Impersistence at work or school: difference (patients on olanzapine, P = 0.0242): (−0.9)
- Change in baseline scores, SANS question 22: Global rating of anhedonia: difference (patients on olanzapine, P = 0.0475): (−0.6)
- Change in baseline scores, SANS question 18: Recreational interests and activity: difference (patients on olanzapine, P = 0.0689): (−0.8)
- Change in baseline scores, SANS question 19: Sexual interest and activity: difference (patients on olanzapine, P = 0.0794): (−0.9)
- Change in baseline scores, SANS question 25: Global rating of attention: difference (patients on olanzapine, P = 0.1064): (−0.6)
- Change in baseline scores, SANS sub-scale 5 (disturbance of attention): difference (patients on olanzapine, P = 0.3556): (−1.0)
- Change in baseline scores, SANS question 21: Relationships with friends and peers: difference (patients on olanzapine, P = 0.4829): (−0.2)
- Change in baseline scores, SANS question 24: Inattentiveness during mental status testing: difference (patients on olanzapine, P = 0.5922): (−0.2)
- Change in baseline scores, SANS question 23: Social inattentiveness: difference (patients on olanzapine, P = 0.6757): (−0.2)
- Change in baseline scores, SANS question 24: Inattentiveness during mental status testing: difference (patients on other antipsychotics, P = 0.0654): (−1.6)
- Change in baseline scores, SANS question 25: Global rating of attention: difference (patients on other antipsychotics, P = 0.1763): (0.8)
- Change in baseline scores, SANS question 20: Ability to feel closeness and intimacy: difference (patients on other antipsychotics, P = 0.2601): (−0.4)
- Change in baseline scores, SANS question 15: Impersistence at work or school: difference (patients on other antipsychotics, P = 0.2746): (−10.6)
- Change in baseline scores, SANS score: difference (patients on other antipsychotics, P = 0.3359): (−8.3)
- Change in baseline scores, SANS sub-scale 5 (disturbance of attention): difference (patients on other antipsychotics, P = 0.4192): (−1.5)
- Change in baseline scores, SANS question 23: Social inattentiveness: difference (patients on other antipsychotics, P = 0.4246): (−0.5)
- Change in baseline scores, SANS sub-scale 4 (anhedonia/asociality): difference (patients on other antipsychotics, P = 0.5465): (−0.8)
- Change in baseline scores, SANS question 21: Relationships with friends and peers: difference (patients on other antipsychotics, P = 0.6373): (−0.2)
- Change in baseline scores, SANS question 22: Global rating of anhedonia: difference (patients on other antipsychotics, P = 0.6969): (−0.2)
- Change in baseline scores, SANS question 18: Recreational interests and activity: difference (patients on other antipsychotics, P = 0.8182): (−0.1)
- Change in baseline scores, SANS question 19: Sexual interest and activity: difference (patients on other antipsychotics, P = 0.9656): (0.0)
- Change in baseline scores, SANS sub-scale 4 (anhedonia/asociality): difference (patients on quetiapine, P = 0.0017): (−4.8)
- Change in baseline scores, SANS question 21: Relationships with friends and peers: difference (patients on quetiapine, P = 0.0044): (−0.7)
- Change in baseline scores, SANS question 18: Recreational interests and activity: difference (patients on quetiapine, P = 0.0233): (−1.3)
- Change in baseline scores, SANS question 19: Sexual interest and activity: difference (patients on quetiapine, P = 0.0501): (−1.4)
- Change in baseline scores, SANS question 23: Social inattentiveness: difference (patients on quetiapine, P = 0.0862): (−0.5)
- Change in baseline scores, SANS question 22: Global rating of anhedonia: difference (patients on quetiapine, P = 0.1043): (−1.1)
- Change in baseline scores, SANS question 20: Ability to feel closeness and intimacy: difference (patients on quetiapine, P = 0.1330): (−0.4)
- Change in baseline scores, SANS question 25: Global rating of attention: difference (patients on quetiapine, P = 0.2697): (−0.4)
- Change in baseline scores, SANS sub-scale 5 (disturbance of attention): difference (patients on quetiapine, P = 0.2701): (−1.1)
- Change in baseline scores, SANS score: difference (patients on quetiapine, P = 0.3150): (−5.4)
- Change in baseline scores, SANS question 24: Inattentiveness during mental status testing: difference (patients on quetiapine, P = 0.4421): (−0.6)
- Change in baseline scores, SANS question 15: Impersistence at work or school: difference (patients on quetiapine, P = 0.6640): (5.1)
- Change in baseline scores, SANS question 21: Relationships with friends and peers: difference (patients on risperidone, P = 0.0791): (0.5)
- Change in baseline scores, SANS sub-scale 4 (anhedonia/asociality): difference (patients on risperidone, P = 0.2800): (1.2)
- Change in baseline scores, SANS score: difference (patients on risperidone, P = 0.2955): (3.1)
- Change in baseline scores, SANS sub-scale 5 (disturbance of attention): difference (patients on risperidone, P = 0.3302): (0.7)
- Change in baseline scores, SANS question 25: Global rating of attention: difference (patients on risperidone, P = 0.3389): (0.2)
- Change in baseline scores, SANS question 24: Inattentiveness during mental status testing: difference (patients on risperidone, P = 0.4231): (0.3)
- Change in baseline scores, SANS question 18: Recreational interests and activity: difference (patients on risperidone, P = 0.4560): (−0.3)
- Change in baseline scores, SANS question 23: Social inattentiveness: difference (patients on risperidone, P = 0.5207): (0.2)
- Change in baseline scores, SANS question 15: Impersistence at work or school: difference (patients on risperidone, P = 0.6285): (0.1)
- Change in baseline scores, SANS question 19: Sexual interest and activity: difference (patients on risperidone, P = 0.6889): (0.1)
- Change in baseline scores, SANS question 20: Ability to feel closeness and intimacy: difference (patients on risperidone, P = 0.8648): (0.0)
- Change in baseline scores, SANS question 22: Global rating of anhedonia: difference (patients on risperidone, P = 0.9940): (0.0)
